In US8680065B2, “Oligonucleotides of human endogenous retrovirus 9 (ERV-9) long terminal repeat (LTR) and methods of use” (The United States of America, as represented by the …, priority 2008, dated 2014):

Columns and labels:
human primary monocytes = test: Proliferation of normal human primary cells, 48 hours; format: cell-based; settings: 20 μg/ml, P>0.05
Protocol: FIG. 15 is a graph showing the effect of ERV-9 U3 sense and antisense oligonucleotides (SEQ ID NOs: 1 and 2, respectively) on human primary monocytes. Cells (4×10^4) were transfected with ERV-9 U3 sense or antisense oligonucleotide formulated in LIPOFECTAMINE™ at a concentration of 20 μg/ml for 48 hours.
To determine whether the inhibitory effect of ERV-9 U3 oligonucleotides is specific to cancer cells, human primary keratinocytes (FIG. 13), lymphocytes (FIG. 14), or monocytes (FIG. 15) were treated with ERV-9 U3 sense or antisense oligonucleotide and cell proliferation was evaluated. Cells (4×10^4) were transfected with ERV-9 U3 sense or antisense oligonucleotide (SEQ ID NOs: 1 and 2, respectively) formulated in LIPOFECTAMINE™ at a concentration of 20 μg/ml. GFP oligonucleotide was used as non-specific phosphorothioate oligonucleotide control. After 48 hours, cell proliferation was assessed by direct cell counting. Cell proliferation levels were expressed relative to GFP control.

[1] = test system: MDA-231 cells (a breast cancer cell line); test: Cancer cell proliferation, oligonucleotide in LIPOFECTAMINE, 48 hours, direct cell counting; format: cell-based, human; settings: oligonucleotide 10, 20 or 30 μg/ml, P<0.05
[2] = test system: HepG2 cells (a hepatocellular carcinoma cell line); test: as above; format: cell-based, human; settings: oligonucleotide 10, 20 or 30 μg/ml, P<0.05
Protocol: FIG. 5 is a graph showing the effect of sense and antisense ERV-9 U3 oligonucleotides (SEQ ID NOs: 1 and 2, respectively) on proliferation of HepG2 cells (a hepatocellular carcinoma cell line). Cells (4×10^4) were treated with ERV-9 U3 sense or antisense oligonucleotide formulated in LIPOFECTAMINE™ at the concentrations shown for 48 hours.
To test the effect of the sense and antisense ERV-9 U3 oligonucleotides on proliferation of cancer cells, six different cancer cell lines were selected for transfection studies: HT1080, fibrosarcoma cells (FIG. 1); MDA-231, breast cancer cells (FIG. 2); K562, myelogenous leukemia cells (FIG. 3); LNcaP, prostate cancer cells (FIG. 4); HepG2, hepatocellular carcinoma cells (FIG. 5); and MCF-7, breast cancer cells (FIG. 6). Cells (4×10^4) were treated with ERV-9 U3 sense or antisense oligonucleotide formulated in LIPOFECTAMINE™ at an oligonucleotide concentration of 10, 20 or 30 μg/ml for 48 hours. […] Antisense oligonucleotides specific for Bcl-2 (G3139; TCTCCCAGCGTGCGCCAT; SEQ ID NO: 4), telomerase (GRN163; TAGGGTTAGACAA; SEQ ID NO: 5), and MDM2 ([…]; SEQ ID NO: 6) were also evaluated. […] After 48 hours of oligonucleotide treatment, cell proliferation was assessed by direct cell counting. […]

MCF-7 cells = test: Cancer cell proliferation, oligonucleotide in combination with VP16, 48 hours; format: cell-based, human; settings: oligonucleotide 15 μg/ml with VP16 30 ng/ml and 50 ng/ml, P<0.05
Protocol: (§1) FIG. 12 is a graph showing proliferation of MCF-7 cells treated with ERV-9 U3 sense or antisense oligonucleotide (SEQ ID NOs: 1 and 2, respectively), in combination with VP16. Cells (4×10^4) were treated with oligonucleotide (15 μg/ml) alone or in combination with the concentrations of VP16 shown for 48 hours.
(§2) To test the effect of treating cancer cells with the combination of ERV-9 U3 oligonucleotide and VP16, six different cancer cell lines were analyzed: HT1080, (FIG. 7); MDA-231 (FIG. 8); K562 (FIG. 9); LNcaP (FIG. 10); HepG2 (FIG. 11); and MCF-7 (FIG. 12). Cells (4×10^4) were treated with 15 μg/ml ERV-9 U3 sense (SEQ ID NO: 1) or antisense (SEQ ID NO: 2) oligonucleotide alone or in combination with VP16 at a concentration of 30 ng/ml or 50 ng/ml. After 48 hours, cell proliferation was assessed by direct cell counting. Cell proliferation levels were expressed relative to GFP oligonucleotide control in the absence of VP16.

[3] = test system: HT1080, MDA-231, K562, LNcaP, HepG2 and MCF-7 cancer cell lines; test: Cancer cell proliferation, Example 1, summary over six cancer cell lines; format: cell-based, human; settings: for proliferation relative to GFP control oligonucleotide: each of six cancer cell lines, 10, 20 or 30 μg/ml, 48 hours; for proliferation compared with Bcl-2, telomerase and MDM2-specific antisense oligonucleotides: six cancer cell lines, in most instances
Protocol: To test the effect of the sense and antisense ERV-9 U3 oligonucleotides on proliferation of cancer cells, six different cancer cell lines were selected for transfection studies: HT1080, fibrosarcoma cells (FIG. 1); MDA-231, breast cancer cells (FIG. 2); K562, myelogenous leukemia cells (FIG. 3); LNcaP, prostate cancer cells (FIG. 4); HepG2, hepatocellular carcinoma cells (FIG. 5); and MCF-7, breast cancer cells (FIG. 6). Cells (4×10^4) were treated with ERV-9 U3 sense or antisense oligonucleotide formulated in LIPOFECTAMINE™ at an oligonucleotide concentration of 10, 20 or 30 μg/ml for 48 hours. Green fluorescent protein (GFP) sense oligonucleotide ([…]; SEQ ID NO: 3) was used as a control to measure the non-specific cytotoxicity of phosphorothioate-based oligonucleotides. Antisense oligonucleotides specific for Bcl-2 (G3139; TCTCCCAGCGTGCGCCAT; SEQ ID NO: 4), telomerase (GRN163; TAGGGTTAGACAA; SEQ ID NO: 5), and MDM2 ([…]; SEQ ID NO: 6) were also evaluated. […] After 48 hours of oligonucleotide treatment, cell proliferation was assessed by direct cell counting. Cell proliferation levels were expressed relative to cells transfected with 10 μg/ml GFP control oligonucleotide.

[4] = test system: LNcaP cells (a prostate cancer cell line); test: Cancer cell proliferation, oligonucleotide in LIPOFECTAMINE, 48 hours, direct cell counting; format: cell-based, human; settings: oligonucleotide 10, 20 or 30 μg/ml
HepG2 cells = test: Cancer cell proliferation, oligonucleotide in combination with VP16, 48 hours; format: cell-based, human; settings: oligonucleotide 15 μg/ml with VP16 30 ng/ml and 50 ng/ml, P<0.05
Protocol: as §1, with “11” for “12”, “HepG2” for “MCF-7”
as §2

HT1080 cells = test: Cancer cell proliferation, U3 and U5 oligonucleotides, 72 hours; format: cell-based, human; settings: 20 μg/ml
Protocol: FIG. 16 is a graph showing the effect of sense and antisense ERV-9 U3 (SEQ ID NOs: 1, 2, 7, 8, 9, and 10) and U5 (SEQ ID NOs: 11 and 12) oligonucleotides on proliferation of HT1080 cells. Cells (4×10^4) were treated with oligonucleotide formulated in LIPOFECTAMINE™ at a concentration of 20 μg/ml for 72 hours. GFP sense oligonucleotide was used as a control to measure the non-specific cytotoxicity of phosphorothioate-based oligonucleotides. Antisense oligonucleotides G3139, GRN163, and MDM2 were also evaluated. Cell proliferation levels were expressed relative to cells transfected with GFP oligonucleotide. All U3 and U5 sense and antisense oligonucleotides inhibited cell proliferation to a greater extent that GFP control. In addition, with the exception of the U5 sense oligonucleotide, all U3 and U5 oligonucleotides inhibited cell proliferation better than the G3139, GRN163 and MDM2 antisense oligonucleotides.
HT1080 or MDA-231 cells (4×10^4 cells) were treated with ERV-9 LTR (U3 or U5) sense or antisense oligonucleotides formulated in LIPOFECTAMINE™ at a concentration of 20 μg/ml for 72 hours. GFP sense oligonucleotide was used as a control to measure the non-specific cytotoxicity of phosphorothioates-based oligonucleotides. Relative cell proliferation levels were expressed as percentage of GFP oligonucleotide transfected control. The results are shown in FIG. 16 (HT1080 cells) and FIG. 17 (MDA-231 cells).

U3S: ERV-9 LTR U3 sense oligonucleotide CTCAAGGTTTGTAAACACACCAATCAG, phosphorothioate internucleoside linkages at each position (all phosphorothioate, sugars by position and methylation of C not given here) [Oligo U3S]
cell proliferation relative to control GFP oligonucleotide (human primary monocytes): did not inhibit cell proliferation relative to control GFP oligonucleotide
cell proliferation relative to GFP oligonucleotide [1]: inhibited cell proliferation better than GFP control oligonucleotide at all three oligonucleotide concentrations
cell proliferation relative to GFP oligonucleotide [2]: inhibited cell proliferation better than GFP control and G3139, GRN163 and MDM2 antisense oligonucleotides at all three concentration levels
cell proliferation relative to GFP oligonucleotide control (MCF-7 cells): inhibited cell proliferation better than GFP control and G3139, GRN163 and MDM2 antisense oligonucleotides
proliferation relative to GFP control oligonucleotide [3]: resulted in a significant decrease in proliferation of each cancer cell line tested, relative to GFP control oligonucleotide
proliferation compared with Bcl-2, telomerase and MDM2-specific antisense oligonucleotides [3]: inhibited proliferation to a greater extent than the Bcl-2, telomerase and MDM2-specific antisense oligonucleotides
cell proliferation relative to GFP oligonucleotide [4]: inhibited cell proliferation better than GFP control oligonucleotide at all three oligonucleotide concentrations
cell proliferation relative to GFP oligonucleotide control (HepG2 cells): inhibited cell proliferation better than GFP control and G3139, GRN163 and MDM2 antisense oligonucleotides
cell proliferation relative to GFP oligonucleotide transfected control (HT1080 cells): inhibited cell proliferation better than G3139, GRN163 and MDM2 oligonucleotides

U3AS: ERV-9 LTR U3 antisense oligonucleotide CTGATTGGTGTGTTTACAAACCTTGAG, phosphorothioate internucleoside linkages at each position (all phosphorothioate, sugars by position and methylation of C not given here) [Oligo U3AS]
cell proliferation relative to control GFP oligonucleotide (human primary monocytes): did not inhibit cell proliferation relative to control GFP oligonucleotide
cell proliferation relative to GFP oligonucleotide [1]: inhibited cell proliferation better than GFP control oligonucleotide at all three oligonucleotide concentrations
cell proliferation relative to GFP oligonucleotide [2]: inhibited cell proliferation better than GFP control and G3139, GRN163 and MDM2 antisense oligonucleotides at all three concentration levels
cell proliferation relative to GFP oligonucleotide control (MCF-7 cells): inhibited cell proliferation better than GFP control and G3139, GRN163 and MDM2 antisense oligonucleotides
proliferation relative to GFP control oligonucleotide [3]: resulted in a significant decrease in proliferation of each cancer cell line tested, relative to GFP control oligonucleotide
proliferation compared with Bcl-2, telomerase and MDM2-specific antisense oligonucleotides [3]: inhibited proliferation to a greater extent than the Bcl-2, telomerase and MDM2-specific antisense oligonucleotides
tumor cell proliferation, antisense relative to sense oligonucleotide ([3]; tumor cells): more potently inhibited tumor cell proliferation (relative to the sense oligonucleotide)
cell proliferation relative to GFP oligonucleotide [4]: inhibited cell proliferation better than GFP control oligonucleotide at all three oligonucleotide concentrations
cell proliferation relative to GFP oligonucleotide control (HepG2 cells): inhibited cell proliferation better than GFP control and G3139, GRN163 and MDM2 antisense oligonucleotides
cell proliferation relative to GFP oligonucleotide transfected control (HT1080 cells): inhibited cell proliferation better than G3139, GRN163 and MDM2 oligonucleotides
